Experimental data published in patent publication US20080318925A1 (ASTRAZENECA AB, priority 2007, published 2008).

Biological target: T1, GABAA2 receptors (α2, β3, γ3 receptor subunits transfected into Sf9 cells) (Homo sapiens, UniProt P47869+Q99928)
T1 construct: host or cells: Sf9 cells (membranes)
T1 sequence (P47869 29-451): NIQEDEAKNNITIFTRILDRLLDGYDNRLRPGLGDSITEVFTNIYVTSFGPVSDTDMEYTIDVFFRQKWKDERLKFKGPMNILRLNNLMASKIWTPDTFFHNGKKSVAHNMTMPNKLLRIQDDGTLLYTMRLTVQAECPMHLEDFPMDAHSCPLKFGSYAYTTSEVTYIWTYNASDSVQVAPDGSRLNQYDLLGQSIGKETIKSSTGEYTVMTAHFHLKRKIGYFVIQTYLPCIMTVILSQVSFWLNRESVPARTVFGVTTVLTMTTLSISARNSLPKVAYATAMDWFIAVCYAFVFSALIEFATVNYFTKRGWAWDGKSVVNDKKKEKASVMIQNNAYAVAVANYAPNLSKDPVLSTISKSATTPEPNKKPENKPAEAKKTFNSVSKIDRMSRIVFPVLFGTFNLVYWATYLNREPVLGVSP
T1 sequence (P28472 26-473 partner): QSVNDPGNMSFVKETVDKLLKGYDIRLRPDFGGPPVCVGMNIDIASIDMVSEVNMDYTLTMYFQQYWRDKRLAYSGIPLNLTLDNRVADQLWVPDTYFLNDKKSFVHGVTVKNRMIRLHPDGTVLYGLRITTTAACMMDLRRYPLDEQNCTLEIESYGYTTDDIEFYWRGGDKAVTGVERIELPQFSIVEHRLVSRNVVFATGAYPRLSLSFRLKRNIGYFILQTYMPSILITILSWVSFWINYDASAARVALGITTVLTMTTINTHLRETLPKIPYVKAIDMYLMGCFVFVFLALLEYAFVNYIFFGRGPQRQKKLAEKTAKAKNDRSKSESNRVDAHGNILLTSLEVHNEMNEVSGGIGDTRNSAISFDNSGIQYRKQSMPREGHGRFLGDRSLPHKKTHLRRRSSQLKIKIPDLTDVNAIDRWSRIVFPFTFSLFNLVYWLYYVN
T1 sequence (Q99928 18-467): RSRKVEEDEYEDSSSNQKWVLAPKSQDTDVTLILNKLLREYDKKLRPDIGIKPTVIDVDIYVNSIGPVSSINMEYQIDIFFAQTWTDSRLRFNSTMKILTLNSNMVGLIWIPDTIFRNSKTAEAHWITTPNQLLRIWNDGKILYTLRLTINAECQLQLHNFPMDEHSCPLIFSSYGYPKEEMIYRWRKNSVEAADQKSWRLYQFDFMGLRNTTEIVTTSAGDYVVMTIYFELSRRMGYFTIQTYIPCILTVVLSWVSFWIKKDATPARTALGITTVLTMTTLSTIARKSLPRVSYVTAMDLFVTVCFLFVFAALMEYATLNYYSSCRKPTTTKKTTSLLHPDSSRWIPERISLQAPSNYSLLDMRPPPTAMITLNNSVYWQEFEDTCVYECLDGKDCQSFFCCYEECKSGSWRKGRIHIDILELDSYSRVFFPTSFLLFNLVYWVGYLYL
Test: GABAA2 binding method ([3H]-flunitrazepam displacement)
Settings: [3H]-flunitrazepam ~2 nM, Sf9 membranes, 1 hr at 4° C.
Description: In some embodiments, the binding test was directed to a subtype of GABAA receptors, such as GABAA1 receptors (i.e., those containing the α1 subunit), GABAA2 receptors (i.e., those containing the α2 subunit), GABAA3 receptors (i.e., those containing the α3 subunit) and GABAA5 receptors (i.e., those containing the α5 subunit).
• Assay and Wash Buffer: 50 mM Tris-Citrate, 200 mM NaCl, pH 7.8 Compounds at 10 mM in DMSO: Put 75 μl in column 1 of compound plate.
Flumazenil, 10 mM (for NSB)
[^3H]-Flunitrazepam (Cat #NET567): Prepare 10× stock=20 nM, [F} in assay=˜2 nM
1. […] Add 5 ul of 30 uM flumazenil to wells 12 D-E for 50% control wells.
2. Spot 2 μl of compound dilutions into dry plate (Automation Program 3). Manually spot 2 μl 10 mM flumazenil into wells 12 F-H for nonspecific control.
3. Make 1:100 dilution in assay buffer (2 μl into 200 μl) and dispense 25 μl compound into assay plates (Automation Program 4).
4. Dispense 200 μl membranes into assay plate (Automation Program 5).
5. Add 25 μl [^3H]-Flunitrazepam (Automation Program 6). Incubate for 1 hr at 4° C.
6. Collect membranes on a cell harvester onto GF/B filter plates (pre-wet with dH2O and wash 5× 400 μl/well, with cold assay buffer. (First 3 washes are considered hot; last two are cold.)
7. Dry plates for 2-3 hours at RT.
8. Add 40 μl Microscint 40/well (Automation Program 7); seal plates. Count on a TopCount.
Data is analyzed by calculating percent of control, IC50, and Ki in an XLfit template. The following formula is used in the templates: […]

Row | Ki [nM] | Structure (SMILES)
1 | 0.615 | CCCNC(=O)c1nnc2c(-c3cccc(C)c3C)c(F)ccc2c1N
2 | 0.624 | CCCNC(=O)c1nnc2c(-c3ccc(OC)cc3C(F)(F)F)c(F)ccc2c1N
3 | 0.698 | COc1cccc(F)c1-c1cccc2c(N)c(C(=O)NC3CC3)nnc12
4 | 0.71 | CCCNC(=O)c1nnc2c(-c3cc(Cl)ccc3Cl)cccc2c1N
5 | 0.735 | CCCNC(=O)c1nnc2c(-c3cc(F)ccc3C)c(F)ccc2c1N
6 | 0.852 | CCCNC(=O)c1nnc2c(-c3cc(C)ccc3F)cccc2c1N
7 | 0.918 | CCCNC(=O)c1nnc2c(-c3cnc(OC)nc3OC)c(F)ccc2c1N
8 | 0.937 | CCCNC(=O)c1nnc2c(-c3cc(C)ccc3OC)c(F)ccc2c1N
9 | 0.941 | CCCNC(=O)c1nnc2c(-c3cccc(OC)c3F)c(F)ccc2c1N
10 | 0.98 | CCCNC(=O)c1nnc2c(-c3cc(F)ccc3OC)c(F)ccc2c1N
11 | 0.996 | CCCNC(=O)c1nnc2c(-c3cc(F)ccc3F)cccc2c1N
12 | 1 | CCCNC(=O)c1nnc2c(-c3ccccc3)c(F)ccc2c1N
13 | 1 | COc1ccc(-c2cccc3c(N)c(C(=O)NC4CC4)nnc23)c(OC)n1
14 | 1.03 | CCCNC(=O)c1nnc2c(-c3ccc(F)cc3OCC)c(F)ccc2c1N
15 | 1.11 | CCCNC(=O)c1nnc2c(-c3cc(Cl)ccc3OC)cccc2c1N
16 | 1.13 | CCCNC(=O)c1nnc2c(-c3cccnc3F)cccc2c1N
17 | 1.18 | CCCNC(=O)c1nnc2c(-c3cccc(C#N)c3)cccc2c1N

Row | Ki [nM] | Structure (SMILES)
18 | 1.25 | CCCNC(=O)c1nnc2c(-c3cc(OC)ccc3Cl)c(F)ccc2c1N
19 | 1.31 | CCCNC(=O)c1nnc2c(-c3cc(C)ccc3C)c(F)ccc2c1N
20 | 1.34 | CCCNC(=O)c1nnc2c(-c3cc(Cl)ccc3Cl)c(F)ccc2c1N
21 | 1.36 | CCCNC(=O)c1nnc2c(-c3cc(C(F)(F)F)ccc3Cl)cccc2c1N
22 | 1.49 | CCCNC(=O)c1nnc2c(-c3cc(F)c(OC)cc3F)cccc2c1N
23 | 1.67 | CCCNC(=O)c1nnc2c(-c3ccncc3)cccc2c1N
24 | 1.67 | CCCNC(=O)c1nnc2c(-c3ccc(C)nc3F)cccc2c1N
25 | 1.68 | CCCNC(=O)c1nnc2c(-c3cnccc3C)cccc2c1N
26 | 1.72 | CCCNC(=O)c1nnc2c(-c3ccc(F)cc3F)cccc2c1N
27 | 1.73 | CCCNC(=O)c1nnc2c(-c3cc(OC)ccc3F)cccc2c1N
28 | 1.82 | CCCNC(=O)c1nnc2c(-c3cccc(Cl)c3Cl)cccc2c1N
29 | 1.84 | CCCCNC(=O)c1nnc2c(-c3cnccc3OC)cccc2c1N
30 | 2.07 | COc1ccc(-c2cccc3c(N)c(C(=O)NC4CC4)nnc23)c(OC)c1
31 | 2.1 | CCCNC(=O)c1nnc2c(-c3cccnc3OC)cccc2c1N
32 | 0.927 | COc1ccc(-c2cccc3c(N)c(C(=O)NC4CCC4)nnc23)c(OC)c1
33 | 4.02 | Cc1ccc(-c2cccc3c(N)c(C(=O)NC4CC4)nnc23)cn1
34 | 4.54 | CCNC(=O)c1nnc2c(-c3ccc(OC)cc3OC)cccc2c1N
